Results reported in ChEMBL document CHEMBL4251747 (Bioorg Med Chem, 2018).

Columns and labels:
[1] = Solubility of the compound; format: physicochemical
[2] = target: Aurora kinase B/Inner centromere protein (Homo sapiens, UniProt Q96GD4); test: Inhibition of human full length N-terminal GST-tagged Aurora B (1 to 344 end residues)/His-tagged INCENP (803 to 918 end residues) expressed in baculovirus expression system using fluorescence-labeled FL-Peptide 21 as substrate after 60 mins in presence of ATP by fluorescence assay based Cheng-Prusoff equation analysis
Sequence of Aurora kinase B/Inner centromere protein (Q96GD4 whole entry): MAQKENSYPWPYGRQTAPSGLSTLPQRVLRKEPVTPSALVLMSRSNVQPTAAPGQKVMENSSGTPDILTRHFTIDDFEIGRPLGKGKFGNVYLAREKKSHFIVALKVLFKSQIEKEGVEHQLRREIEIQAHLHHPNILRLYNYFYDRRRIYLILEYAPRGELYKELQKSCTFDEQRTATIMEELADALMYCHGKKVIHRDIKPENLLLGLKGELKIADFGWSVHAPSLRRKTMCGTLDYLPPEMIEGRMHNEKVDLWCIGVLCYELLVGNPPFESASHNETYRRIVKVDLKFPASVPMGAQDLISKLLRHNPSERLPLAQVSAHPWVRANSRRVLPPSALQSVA
Sequence of Aurora kinase B/Inner centromere protein (Q9NQS7 whole entry, further chain): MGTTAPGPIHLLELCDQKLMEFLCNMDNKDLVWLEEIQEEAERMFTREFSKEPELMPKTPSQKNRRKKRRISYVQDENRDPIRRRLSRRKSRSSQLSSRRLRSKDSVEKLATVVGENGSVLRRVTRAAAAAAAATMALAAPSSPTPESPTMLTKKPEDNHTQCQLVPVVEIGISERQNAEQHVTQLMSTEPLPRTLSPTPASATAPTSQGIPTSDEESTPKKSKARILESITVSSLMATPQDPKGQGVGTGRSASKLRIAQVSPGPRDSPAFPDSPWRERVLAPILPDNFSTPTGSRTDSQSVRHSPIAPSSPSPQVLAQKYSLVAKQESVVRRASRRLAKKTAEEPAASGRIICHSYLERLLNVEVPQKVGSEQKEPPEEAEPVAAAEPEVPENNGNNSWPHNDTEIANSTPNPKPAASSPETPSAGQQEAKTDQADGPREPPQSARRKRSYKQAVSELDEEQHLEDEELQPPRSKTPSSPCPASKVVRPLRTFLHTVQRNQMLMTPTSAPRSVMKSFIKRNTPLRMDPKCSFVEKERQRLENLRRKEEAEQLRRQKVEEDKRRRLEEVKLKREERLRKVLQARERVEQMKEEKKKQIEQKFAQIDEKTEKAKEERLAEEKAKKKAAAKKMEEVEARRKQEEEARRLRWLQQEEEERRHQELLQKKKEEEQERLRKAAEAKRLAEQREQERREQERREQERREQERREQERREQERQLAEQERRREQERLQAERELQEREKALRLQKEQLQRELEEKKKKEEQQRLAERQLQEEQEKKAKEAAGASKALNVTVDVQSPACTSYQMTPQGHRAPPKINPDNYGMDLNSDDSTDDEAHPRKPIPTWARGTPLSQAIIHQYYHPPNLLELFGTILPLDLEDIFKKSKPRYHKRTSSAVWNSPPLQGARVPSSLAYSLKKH

[3] = target: T1, Aurora kinase A (Homo sapiens, UniProt O14965); test: Inhibition of full length N-terminal His-tagged Aurora A (unknown origin) using fluorescence-labeled FL-Peptide 21 as substrate after 60 mins in presence of ATP by fluorescence assay based Cheng-Prusoff equation analysis
T1 sequence (O14965 whole entry): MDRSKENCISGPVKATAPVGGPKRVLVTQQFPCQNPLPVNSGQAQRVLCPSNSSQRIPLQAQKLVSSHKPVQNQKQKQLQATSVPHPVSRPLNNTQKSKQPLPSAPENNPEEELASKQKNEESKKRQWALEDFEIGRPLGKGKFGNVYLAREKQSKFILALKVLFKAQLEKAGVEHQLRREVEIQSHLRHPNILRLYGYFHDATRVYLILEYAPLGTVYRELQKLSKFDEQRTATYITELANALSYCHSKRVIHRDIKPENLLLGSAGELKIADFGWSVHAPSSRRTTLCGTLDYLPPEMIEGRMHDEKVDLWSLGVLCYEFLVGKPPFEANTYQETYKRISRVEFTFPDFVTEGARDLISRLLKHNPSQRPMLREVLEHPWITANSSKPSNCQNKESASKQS

[4] = target: T2, Dual specificity protein kinase TTK (Homo sapiens, UniProt P33981); test: Inhibition of full length human Mps1 using fluorescence-labeled H236 peptide as substrate after 60 to 90 mins in presence of ATP by fluorescence assay based Cheng-Prusoff equation analysis
T2 sequence (P33981 whole entry): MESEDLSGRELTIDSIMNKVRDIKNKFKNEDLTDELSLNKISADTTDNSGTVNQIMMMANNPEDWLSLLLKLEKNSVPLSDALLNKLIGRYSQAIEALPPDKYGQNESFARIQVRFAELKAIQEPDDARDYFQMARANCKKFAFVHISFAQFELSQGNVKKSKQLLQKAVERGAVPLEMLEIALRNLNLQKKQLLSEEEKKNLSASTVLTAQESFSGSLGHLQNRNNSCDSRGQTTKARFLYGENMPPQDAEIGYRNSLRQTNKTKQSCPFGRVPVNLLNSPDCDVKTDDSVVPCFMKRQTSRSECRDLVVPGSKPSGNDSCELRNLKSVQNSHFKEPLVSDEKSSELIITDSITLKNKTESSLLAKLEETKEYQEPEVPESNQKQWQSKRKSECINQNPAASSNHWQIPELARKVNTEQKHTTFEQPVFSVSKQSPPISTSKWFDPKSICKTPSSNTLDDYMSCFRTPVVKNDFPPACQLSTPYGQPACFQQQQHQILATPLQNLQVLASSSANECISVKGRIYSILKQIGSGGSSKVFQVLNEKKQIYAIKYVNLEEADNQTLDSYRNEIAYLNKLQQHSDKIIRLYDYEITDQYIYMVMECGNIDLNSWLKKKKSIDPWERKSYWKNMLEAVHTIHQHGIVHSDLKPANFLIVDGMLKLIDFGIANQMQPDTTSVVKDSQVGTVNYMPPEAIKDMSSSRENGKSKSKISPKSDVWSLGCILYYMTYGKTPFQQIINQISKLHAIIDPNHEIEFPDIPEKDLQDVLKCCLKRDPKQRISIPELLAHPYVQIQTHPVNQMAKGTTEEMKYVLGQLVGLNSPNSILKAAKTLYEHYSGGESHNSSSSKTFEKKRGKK

In the case of `O=C(Nc1cc(-c2ccncc2)c[nH]c1=O)c1ccccc1`, the solubility [1] is reported as “Insoluble”.

In the case of `CN(C)Cc1ccc(-c2c[nH]c(=O)c(N)c2)cc1`, the Ki [2] is reported as 12.9 µM, the Ki [3] is reported as greater than 100 µM and the Ki [4] is reported as 367 µM.

Work on `Cn1cc(-c2ccncc2)cc(N)c1=O` yielded a Ki [2] of 103 µM, a Ki [3] of 99.5 µM and a Ki [4] of 236 µM.

In the case of `CN1CCN(c2ccc(C(=O)Nc3cc(-c4ccncc4)c[nH]c3=O)cc2)CC1`, the solubility [1] is reported as “Insoluble”.

For `O=C(Nc1cc(-c2ccnc(NC3CC3)n2)c[nH]c1=O)c1ccccc1`, the solubility [1] was “Insoluble”.
